# Experimental data published in US6015838A, “Aqueous film-forming foam compositions” (3M Innovative Properties Company, priority 1996, dated 2000).
# Experiment: Thermogravimetric analysis of neat perfluorocarboxylate salts
# Type: physicochemical
# Details: neat salt, 10° C./min, nitrogen
# Description: Thermal degradation measurements were made on a series of neat perfluorocarboxylate salts, including several ax-branched open chain structures (Examples N2-N9), a primarily linear open chain structure (Example N10--Fluorad™ FC-143 Fluorochemical Surfactant, commercially available from 3M Company, St. Paul, Minn.), and a closed chain (i.e., cyclic) structure (Example N11--made by the electrochemical fluorination of benzoic acid and hydrolysis in the presence of KOH, as described in U.S. Pat. No. 2,567,011 (Diesslin et al.)).
# The perfluorocarboxylate salts were tested using a Perkin-Elmer TGA 7 thermogravimetric analysis apparatus and a salt sample size of approximately 5 mg, a heating rate of 10° C./min, and a nitrogen gas flow rate of 40-45 mL/min. Using the TGA 7 software, the following temperatures were recorded: (1) the onset temperature of decomposition, (2) the temperature at which 50% of the sample weight was lost, and (3) the temperature at which 90% of the sample weight was lost.
Compound,onset temperature of decomposition,temperature for 50% loss,temperature for 90% loss
"O=C(O)C(F)(C(F)(F)C(F)(F)F)C(F)(F)C(F)(F)C(F)(F)C(F)(F)C(F)(F)C(F)(F)F (stereo not drawn) [Example M19, C6 F13 CF(C2 F5)COO^- H4 N^+]",153 °C,171 °C,188 °C
"O=C(O)C(F)(C(F)(F)F)C(F)(F)C(F)(F)C(F)(F)C(F)(F)C(F)(F)C(F)(F)C(F)(F)C(F)(F)C(F)(F)C(F)(F)F (stereo not drawn) [Example M18, C10 F21 CF(CF3)COO^- H4 N^+]",164 °C,181 °C,188 °C
O=C(O)C1(F)C(F)(F)C(F)(F)C(F)(F)C(F)(F)C1(F)F [reference compound],100 °C,110 °C,120 °C

# Same assay, conditions: neat salt, 10° C./min, nitrogen; listed as N2
Compound,onset temperature of decomposition,temperature for 50% loss,temperature for 90% loss
"O=C(O)C(F)(C(F)(F)F)C(F)(F)C(F)(F)C(F)(F)C(F)(F)C(F)(F)F (stereo not drawn) [Example M15, C5 F11 CF(CF3)COO^- H4 N^+]",166 °C,178 °C,188 °C

# Same assay, conditions: neat salt, 10° C./min, nitrogen; listed as N8
Compound,onset temperature of decomposition,temperature for 50% loss,temperature for 90% loss
"O=C(O)C(F)(C(F)(F)F)C(F)(F)C(F)(F)C(F)(F)C(F)(F)C(F)(F)F (stereo not drawn) [Example M28, C5 F11 CF(CF3)COO^- Na^+]",236 °C,250 °C,263 °C

# Same assay, conditions: neat salt, 10° C./min, nitrogen; listed as N9
Compound,onset temperature of decomposition,temperature for 50% loss
"O=C(O)C(F)(C(F)(F)F)C(F)(F)C(F)(F)C(F)(F)C(F)(F)C(F)(F)F (stereo not drawn) [Example M21, C5 F11 CF(CF3)COO^- K^+]",167 °C,178 °C

# Same assay, conditions: neat salt; stopped at 85% weight loss as remaining salt, KF, is not volatile
row,Compound,temperature for 90% loss (stopped at 85% weight loss)
1,"O=C(O)C(F)(C(F)(F)F)C(F)(F)C(F)(F)C(F)(F)C(F)(F)C(F)(F)F (stereo not drawn) [Example M21, C5 F11 CF(CF3)COO^- K^+]",188 °C

# Experiment: Surface tension and critical micelle concentration (CMC) of aqueous surfactant solutions
# Type: physicochemical
# Details: Table 3; deionized water
# Description: Critical Micelle Concentration (CMC): The critical micelle concentration is defined as the concentration at which further surface tension is no longer lowered with increasing levels of surfactant. […] Surface tension is then plotted vs. log concentration and the data points are connected. The resulting curve has a nearly horizontal flat portion at concentrations above the CMC and has a negative steep slope at concentrations below the CMC. The CMC is defined as the lowest surfactant concentration in the horizontal flat portion of the curve.
# (§1) Then the critical micelle concentration (CMC) was determined for each surfactant.
# as §1
Compound,solubility,CMC
"C[N+](C)([O-])CCCNC(=O)C(F)(C(F)(F)C(F)(F)C(F)(F)F)C(F)(F)C(F)(F)C(F)(F)C(F)(F)C(F)(F)C(F)(F)C(F)(F)F (stereo not drawn) [Example E7, C7 F15 CF(C3 F7)CONH(CH2)3 N^+ (CH3)2 O^-]",low solub.,
O=C(NCCC[N+]1([O-])CCOCC1)C(F)(C(F)(F)F)C(F)(F)C(F)(F)C(F)(F)C(F)(F)C(F)(F)C(F)(F)C(F)(F)F (stereo not drawn) [Example E9],low solub.,
O=C(NCCC[N+]1(CCO)CCOCC1)C(F)(C(F)(F)F)C(F)(F)C(F)(F)C(F)(F)C(F)(F)C(F)(F)C(F)(F)C(F)(F)F (stereo not drawn) [Example F5],,1000 ppm
O=C([O-])CC[N+]1(CCCNC(=O)C(F)(C(F)(F)F)C(F)(F)C(F)(F)C(F)(F)C(F)(F)C(F)(F)C(F)(F)C(F)(F)F)CCOCC1 (stereo not drawn) [Example K3],,1000 ppm

# Same assay, conditions: Table 3; deionized water, at CMC
row,Compound,Surf Tens. (surface tension at the CMC)
1,C[n+]1ccc(C(=O)NCCOC(=O)C(F)(C(F)(F)F)C(F)(F)C(F)(F)C(F)(F)C(F)(F)C(F)(F)C(F)(F)F)cc1 (stereo not drawn) [Example F2],15.5 dynes/cm
2,"C[N+](C)([O-])CCCNC(=O)C(F)(C(F)(F)F)C(F)(F)C(F)(F)C(F)(F)C(F)(F)C(F)(F)C(F)(F)C(F)(F)C(F)(F)C(F)(F)C(F)(F)F (stereo not drawn) [Example E5, C10 F21 CF(CF3)CONH(CH2)3 N^+ (CH3)2 O^-]",17.1 dynes/cm
3,C8 F17 CF(CF3)CO(OCH2 CH2)16 OCH3 [Example J1],22 dynes/cm
4,O=C(OCCc1cccc[n+]1[O-])C(F)(C(F)(F)F)C(F)(F)C(F)(F)C(F)(F)C(F)(F)C(F)(F)C(F)(F)F (stereo not drawn) [Example E12],18.3 dynes/cm
5,C[N+](C)(CCO)CCCNC(=O)C(F)(C(F)(F)F)C(F)(F)C(F)(F)C(F)(F)C(F)(F)C(F)(F)C(F)(F)C(F)(F)F (stereo not drawn) [Example F4],19.0 dynes/cm
6,O=C(NCCOC(=O)C(F)(C(F)(F)F)C(F)(F)C(F)(F)C(F)(F)C(F)(F)C(F)(F)C(F)(F)C(F)(F)F)c1cc[n+]([O-])cc1 (stereo not drawn) [Example E10],14.5 dynes/cm
7,"C[N+](C)([O-])CCCN(CCO)C(=O)C(F)(C(F)(F)F)C(F)(F)C(F)(F)C(F)(F)C(F)(F)C(F)(F)C(F)(F)C(F)(F)F (stereo not drawn) [Example E8, C7 F15 CF(CF3)CON(C2 H4 OH)(CH2)3 N^+ (CH3)2 O^-]",16.6 dynes/cm
8,"C[N+](C)([O-])CCCNC(=O)C(F)(C(F)(F)F)C(F)(F)C(F)(F)C(F)(F)C(F)(F)C(F)(F)C(F)(F)C(F)(F)F (stereo not drawn) [Example E1, C7 F15 CF(CF3)CONH(CH2)3 N^+ (CH3)2 O^-]",16.3 dynes/cm
9,"CN(C)CCCN(CCCN(C)C)C(=O)C(F)(C(F)(F)F)C(F)(F)C(F)(F)C(F)(F)C(F)(F)C(F)(F)C(F)(F)C(F)(F)F (stereo not drawn) [Example F9, C7 F15 CF(CF3)CON[C3 H6 N^+ (CH3)2 H]2 2[^- OOCCH3]]",22.0 dynes/cm
10,O=C(NCCC[N+]1(CCO)CCOCC1)C(F)(C(F)(F)F)C(F)(F)C(F)(F)C(F)(F)C(F)(F)C(F)(F)C(F)(F)C(F)(F)F (stereo not drawn) [Example F5],20.8 dynes/cm
11,C6 F13 CF(CF3)CON(C3 H6 SO3^-)(CH2)3 N^+ (CH3)2 H [Example K2],20.3 dynes/cm
12,C[N+](C)(CCCN(CCC[N+](C)(C)CCC(=O)[O-])C(=O)C(F)(C(F)(F)F)C(F)(F)C(F)(F)C(F)(F)C(F)(F)C(F)(F)C(F)(F)C(F)(F)F)CCC(=O)[O-] (stereo not drawn) [Example K4],23.6 dynes/cm
13,O=C(NCCOC(=O)C(F)(C(F)(F)F)C(F)(F)C(F)(F)C(F)(F)C(F)(F)C(F)(F)C(F)(F)F)c1cc[n+]([O-])cc1 (stereo not drawn) [Example E11],15.5 dynes/cm
14,"C[N+](C)([O-])CCCNC(=O)C(F)(C(F)(F)F)C(F)(F)C(F)(F)C(F)(F)C(F)(F)C(F)(F)F (stereo not drawn) [Example E2, C5 F11 CF(CF3)CONH(CH2)3 N^+ (CH3)2 O^-]",17.5 dynes/cm
15,"C[N+](C)([O-])CCCNC(=O)C(F)(C(F)(F)F)C(F)(F)C(F)(F)C(F)(F)C(F)(F)C(F)(F)C(F)(F)F (stereo not drawn) [Example E3, C6 F13 CF(CF3)CONH(CH2)3 N^+ (CH3)2 O^-]",16.6 dynes/cm
16,O=C(OCCc1cccc[n+]1[O-])C(F)(C(F)(F)F)C(F)(F)C(F)(F)C(F)(F)C(F)(F)C(F)(F)C(F)(F)C(F)(F)F (stereo not drawn) [Example E13],15.0 dynes/cm
17,"C[N+](C)([O-])CCCNC(=O)C(F)(C(F)(F)F)C(F)(F)C(F)(F)C(F)(F)C(F)(F)C(F)(F)C(F)(F)C(F)(F)C(F)(F)F (stereo not drawn) [Example E4, C8 F17 CF(CF3)CONH(CH2)3 N^+ (CH3)2 O^-]",16.5 dynes/cm
18,C[n+]1ccc(C(=O)NCCOC(=O)C(F)(C(F)(F)F)C(F)(F)C(F)(F)C(F)(F)C(F)(F)C(F)(F)C(F)(F)C(F)(F)F)cc1 (stereo not drawn) [Example F1],15.0 dynes/cm
19,C[N+](C)(CCO)CCCNC(=O)C(F)(C(F)(F)F)C(F)(F)C(F)(F)C(F)(F)C(F)(F)C(F)(F)F (stereo not drawn) [Example F3],17.0 dynes/cm
20,"C[N+](C)(CCCNC(=O)C(F)(C(F)(F)F)C(F)(F)C(F)(F)C(F)(F)C(F)(F)C(F)(F)C(F)(F)C(F)(F)F)CCC(=O)[O-] (stereo not drawn) [Example K1, C7 F15 CF(CF3)CONH(CH2)3 N^+ (CH3)2 C2 H4 COO^-]",16.6 dynes/cm
21,O=C([O-])CC[N+]1(CCCNC(=O)C(F)(C(F)(F)F)C(F)(F)C(F)(F)C(F)(F)C(F)(F)C(F)(F)C(F)(F)C(F)(F)F)CCOCC1 (stereo not drawn) [Example K3],19.2 dynes/cm

# Same assay, conditions: Table 5; deionized water, at CMC
row,Compound,Surf. Tens. (surface tension at the CMC)
1,"O=C(O)C(F)(C(F)(F)F)C(F)(F)C(F)(F)C(F)(F)C(F)(F)C(F)(F)F (stereo not drawn) [Example M21, C5 F11 CF(CF3)COO^- K^+]",22.5 dynes/cm
2,"O=C(O)C(F)(C(F)(F)F)C(F)(F)C(F)(F)C(F)(F)C(F)(F)C(F)(F)C(F)(F)F (stereo not drawn) [Example M22, C6 F13 CF(CF3)COO^- K^+]",17.5 dynes/cm
3,"O=C(O)C(F)(C(F)(F)F)C(F)(F)C(F)(F)C(F)(F)C(F)(F)C(F)(F)F (stereo not drawn) [Example M15, C5 F11 CF(CF3)COO^- H4 N^+]",22.1 dynes/cm
4,"O=C(O)C(F)(C(F)(F)F)C(F)(F)C(F)(F)C(F)(F)C(F)(F)C(F)(F)C(F)(F)C(F)(F)F (stereo not drawn) [Example M20, C7 F15 CF(CF3)COO^- H3 N^+ C2 H4 OH]",15.0 dynes/cm
5,"O=C(O)C(F)(C(F)(F)F)C(F)(F)C(F)(F)C(F)(F)C(F)(F)C(F)(F)C(F)(F)C(F)(F)C(F)(F)C(F)(F)C(F)(F)F (stereo not drawn) [Example M18, C10 F21 CF(CF3)COO^- H4 N^+]",14.8 dynes/cm
6,"O=C(O)C(F)(C(F)(F)F)C(F)(F)C(F)(F)C(F)(F)C(F)(F)C(F)(F)C(F)(F)C(F)(F)F (stereo not drawn) [Example M23, C7 F15 CF(CF3)COO^- K^+]",15.0 dynes/cm
7,"O=C(O)C(F)(C(F)(F)F)C(F)(F)C(F)(F)C(F)(F)C(F)(F)C(F)(F)C(F)(F)C(F)(F)F (stereo not drawn) [Example M27, C7 F15 CF(CF3)COO^- Li^+]",24.1 dynes/cm
8,"O=C(O)C(F)(C(F)(F)F)C(F)(F)C(F)(F)C(F)(F)C(F)(F)C(F)(F)C(F)(F)C(F)(F)C(F)(F)F (stereo not drawn) [Example M24, C8 F17 CF(CF3)COO^- K^+]",16.4 dynes/cm
9,"O=C(O)C(F)(C(F)(F)F)C(F)(F)C(F)(F)C(F)(F)C(F)(F)C(F)(F)C(F)(F)C(F)(F)F (stereo not drawn) [Example M30, C7 F15 CF(CF3)COO^- 1/2[H3 N^+ C2 H4 NHC2 H4 N^+ H3]]",16.2 dynes/cm
10,"O=C(O)C(F)(C(F)(F)F)C(F)(F)C(F)(F)C(F)(F)C(F)(F)C(F)(F)C(F)(F)C(F)(F)F (stereo not drawn) [Example M26, C7 F15 CF(CF3)COO^- Na^+]",19.4 dynes/cm
11,"O=C(O)C(F)(C(F)(F)F)C(F)(F)C(F)(F)C(F)(F)C(F)(F)C(F)(F)C(F)(F)F (stereo not drawn) [Example M25, C6 F13 CF(CF3)COO^- Na^+]",19.8 dynes/cm
